The structures appear in SMILES notation. Like-named read-outs stand apart in the source and are kept apart here.

One data set deals with CDK2/cyclin E1 (Homo sapiens, UniProt P24941). Description: CDK2/cyclin E1 ATPase assay (ADP-Glo; phosphorylation of histone H1). Background: In ADP-Glo the light output rises with the ADP produced.
On the set-up of data set [1]: method as in PMID 27537356. To be noted: isolated from A. fumigatus and P. roseopurpurin; ref [30], [31]; cited from earlier work.
The target of data set [2] is T1, luciferase-CDK2/cyclin E1 in HEK293 cells (Homo sapiens, UniProt P24941).
T1 construct: NV2641 (CCNE1); host or cells: HEK293 (ATCC CRL-1573)
The data set is described as follows: cell-based. To be noted: for inhibition at 50 µM: nanoBRET, read-out: inhibition at the highest concentration tested (IC50 ND); for IC50: average ± SD, n = 6, read-out: IC50, inhibition of luciferase-CDK2/cyclin E1 nanoBRET signal. As for the experimental part: HEK293 cells were cultured in Roswell Park Memorial Institute (RPMI) (Invitrogen) with 10% fetal bovine serum (FBS; Invitrogen). For transfection, HEK293 cells were trypsinized and resuspended in Opti-MEM I Reduced Serum, no phenol red medium (Invitrogen) with 1% FBS at a concentration of 2 × 10^5 cells/mL. Five hundred microliters of a 10 μg/mL solution of DNA was prepared by adding 1 μg/mL of CDK2-NanoLuc Fusion Vector (Promega; NV2781) to 9 μg/mL of CCNE1 Expression Vector (Promega; NV2641) in Opti-MEM I Reduced Serum, no phenol red media. Thirty microliters of FuGENE HD Transfection Reagent (Promega) was added to each milliliter of DNA mixture. The lipid-DNA mixture was incubated at room temperature for 20 min.
Posttransfection, the media were replaced with fresh Opti-MEM I Reduced Serum, no phenol red medium. NanoBRET Tracer reagent K-10 […] was added at a concentration of […] (1% DMSO final) along with 0.2% DMSO (± inhibitor). […] Following incubation, plates were removed from the incubator and allowed to equilibrate to room temperature for 15 min. A 3× Complete Substrate Plus Inhibitor Solution was made by adding 30 μL of NanoBRET Nano-Glo Substrate (Promega), 10 μL of Extracellular NanoLuc Inhibitor (Promega), and 4,960 μL of Opti-MEM reduced serum medium, no phenol red (Invitrogen). […] IC50 values were calculated from the dose–response curves using Prism 9 (four-parameter, variable slope). Experiments were performed in triplicate with technical duplicates in each run.
(In BRET a luciferase serves as donor, and the signal depends on an acceptor being close.)

[3] abbreviates: from CDK2/cyclin E1 IC50 values (Fig. 3B).
Where [4] appears, read: read-out: IC50, inhibition of CDK2/cyclin E1-dependent phosphorylation of Histone H1, commercially available depsides and depsidones, n=2.

As for `Cc1cc(O)c(C=O)c2c1C(=O)Oc1c(COC(=O)/C=C/C(=O)O)c(O)c(C(=O)O)c(C)c1O2` [Fumarprotocetriaric acid, fumarprotocetraric acid, reference compound], on CDK2/cyclin E1 (commercial compound screen, n=2), the “effect on luminescence values in CDK2/cyclin E1 ADP-detection assay” value was “increased luminescence values”.

With `CO[C@@]1(C)[C@H](O)C(=O)C(C)=C2OC(=O)c3c(C)cc(O)c(C)c3O[C@@H]21` [compound 1, roseopurpurin C], in data set [1], the cytotoxicity result was “generally cytotoxic”.

Take `Cc1cc(O)c(C)c(O)c1C(=O)Oc1cc(C)c(C(=O)O)c(O)c1C` [compound 6, 4-o-demethyl barbatic acid]: the inhibition at 50 µM in data set [2] was no more than 50%. Also, the inhibition at 100 µM at CDK2/cyclin E1 (read-out: inhibition at the highest concentration tested (IC50 ND)) is no more than 50%.

`Cc1cc(O)c(C)c2c1C(=O)Oc1c(C)c(O)c(C(=O)O)c(C)c1O2` [compound 7, hypoprotocetraric acid]: at CDK2/cyclin E1 (setting [3]), the “improvement of potency by addition of the 4-OH, relative to 8” value is “approximately ninefold”.

Consider `Cc1cc(O)c(C)c2c1Oc1c(C)c(O)cc(C)c1C(=O)O2` [compound 8, 3,8-dihydroxy-1,4,6,9-tetramethyl-dibenzo[b,e][1,4]dioxepin-11-one], for which the IC50 in data set [2] was found to be 27 ± 7 µM; on CDK2/cyclin E1, 6.1 ± 0.5 µM.

On to `Cc1cc(O)c(C)c2c1C(=O)Oc1c(C)c(O)c(O)c(C)c1O2` [compound 10, roseopurpurin G], for which the values for the IC50 (in data set [2]; on CDK2/cyclin E1) were 40 ± 20 µM and 0.7 ± 0.1 µM, respectively. Besides, in data set [1], the cytotoxicity entry is on record as “generally cytotoxic”.

Turning to `CO[C@@]1(C)[C@H](O)C(O)=C(C)C(=O)[C@@H]1Oc1cc(C)cc(O)c1C` [compound 11, aculeatusquinone C], the inhibition at 50 µM in data set [2] is no more than 50%. At CDK2/cyclin E1, the IC50 turned out to be 42 ± 2 µM. In addition, the “fold reduction in activity/potency relative to 1” value on CDK2/cyclin E1 (setting [3]) was “approximately 900 fold”.

Consider `C/C=C(/C)c1cc(O)c(C)c2c1Oc1c(C)c(O)cc(/C(C)=C\C)c1C(=O)O2` [folipastatin, reference compound], for which the IC50 on CDK2/cyclin E1 (setting [4]) is 24 µM.

Take `C/C=C(\C)c1cc(O)c(C)c2c1Oc1cc(O)cc(C)c1C(=O)O2` [unguinol, Unguinol, reference compound]: the IC50 on CDK2/cyclin E1 (setting [4]) was found to be 14 µM.

Values taken from article PMC10691236 (Proceedings of the National Academy of Sciences of the …, 2023).
